Data: patent publication US12343326B2, “Psychoactive medicines and their use for treating psychiatric and neurological conditions and disorders” (Transcend Therapeutics, Inc., priority 2021, dated 2025)

Tests used:
Test in all cases: β-arrestin based GPCR screen (PathHunter / GPCRmax), antagonist mode
[1] = target: 168 GPCRs (Homo sapiens, UniProt P49683); conditions: PRLHR
[2] = target: 168 GPCRs (Homo sapiens, UniProt P30872)
[3] = target: 168 GPCRs (Homo sapiens, UniProt Q16581); conditions: C3AR1, Antagonist
[4] = target: 168 GPCRs (Homo sapiens, UniProt Q96G91)
[5] = target: 168 GPCRs (Homo sapiens, UniProt P08172); conditions: CHRM2, Antagonist
[6] = target: 168 GPCRs (Homo sapiens, UniProt P43119); conditions: PTGIR
[7] = target: 168 GPCRs (Homo sapiens, UniProt P47898); conditions: HTR5A
[8] = target: 168 GPCRs (Homo sapiens, UniProt Q9UBY5)
[9] = target: 168 GPCRs (Homo sapiens, UniProt P35367)
[10] = target: 168 GPCRs (Homo sapiens, UniProt P25116); conditions: F2R; Antagonist; 1 uM
[11] = target: T1, 168 GPCRs (Homo sapiens, UniProt P0DMS8); conditions: ADORA3, Antagonist
T1 sequence (P0DMS8 1-318): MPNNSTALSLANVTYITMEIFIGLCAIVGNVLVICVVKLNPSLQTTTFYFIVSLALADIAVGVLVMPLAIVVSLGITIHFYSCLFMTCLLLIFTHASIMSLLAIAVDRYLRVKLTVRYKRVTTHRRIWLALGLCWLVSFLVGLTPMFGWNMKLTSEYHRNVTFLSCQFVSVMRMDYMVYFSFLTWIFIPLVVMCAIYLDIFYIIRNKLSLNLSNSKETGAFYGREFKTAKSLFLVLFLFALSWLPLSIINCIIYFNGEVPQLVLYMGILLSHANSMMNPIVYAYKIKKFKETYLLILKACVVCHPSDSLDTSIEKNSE

[12] = target: 168 GPCRs (Homo sapiens, UniProt P47211)
[13] = target: 168 GPCRs (Homo sapiens, UniProt Q96LB2)
[14] = target: 168 GPCRs (Homo sapiens, UniProt P21731); conditions: TBXA2R
[15] = target: T2, 168 GPCRs (Homo sapiens, UniProt P32247); conditions: BRS3, Antagonist
T2 sequence (P32247 1-399): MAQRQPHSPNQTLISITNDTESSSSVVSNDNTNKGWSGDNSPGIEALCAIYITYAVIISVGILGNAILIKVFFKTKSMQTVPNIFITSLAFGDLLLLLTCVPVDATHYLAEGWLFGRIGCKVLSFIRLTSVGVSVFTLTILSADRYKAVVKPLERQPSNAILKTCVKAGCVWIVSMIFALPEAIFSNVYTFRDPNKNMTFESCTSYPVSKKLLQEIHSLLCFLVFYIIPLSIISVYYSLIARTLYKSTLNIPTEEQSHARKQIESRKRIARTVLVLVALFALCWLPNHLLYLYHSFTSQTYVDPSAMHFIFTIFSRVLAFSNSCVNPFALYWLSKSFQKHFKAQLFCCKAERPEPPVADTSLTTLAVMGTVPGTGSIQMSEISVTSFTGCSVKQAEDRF

[16] = target: 168 GPCRs (Homo sapiens, UniProt P41586); conditions: ADCYAP1R1, Antagonist
[17] = target: 168 GPCRs (Homo sapiens, UniProt P14416); conditions: DRD2L
[18] = target: 168 GPCRs (Homo sapiens, UniProt P21728)
Chain of 168 GPCRs (Homo sapiens, UniProt P21728) (P21728 whole entry): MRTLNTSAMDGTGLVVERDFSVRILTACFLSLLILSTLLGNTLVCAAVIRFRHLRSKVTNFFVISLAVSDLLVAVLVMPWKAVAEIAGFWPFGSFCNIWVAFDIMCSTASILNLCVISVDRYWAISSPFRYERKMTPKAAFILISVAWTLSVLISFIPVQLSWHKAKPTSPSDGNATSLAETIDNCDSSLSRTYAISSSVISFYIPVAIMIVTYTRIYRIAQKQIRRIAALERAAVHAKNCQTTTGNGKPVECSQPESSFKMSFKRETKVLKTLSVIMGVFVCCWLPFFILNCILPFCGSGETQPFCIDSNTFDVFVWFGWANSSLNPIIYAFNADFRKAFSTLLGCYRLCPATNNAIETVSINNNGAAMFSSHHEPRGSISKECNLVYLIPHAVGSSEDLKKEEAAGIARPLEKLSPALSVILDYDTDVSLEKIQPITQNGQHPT

Chain of 168 GPCRs (Homo sapiens, UniProt P30872) (P30872 whole entry): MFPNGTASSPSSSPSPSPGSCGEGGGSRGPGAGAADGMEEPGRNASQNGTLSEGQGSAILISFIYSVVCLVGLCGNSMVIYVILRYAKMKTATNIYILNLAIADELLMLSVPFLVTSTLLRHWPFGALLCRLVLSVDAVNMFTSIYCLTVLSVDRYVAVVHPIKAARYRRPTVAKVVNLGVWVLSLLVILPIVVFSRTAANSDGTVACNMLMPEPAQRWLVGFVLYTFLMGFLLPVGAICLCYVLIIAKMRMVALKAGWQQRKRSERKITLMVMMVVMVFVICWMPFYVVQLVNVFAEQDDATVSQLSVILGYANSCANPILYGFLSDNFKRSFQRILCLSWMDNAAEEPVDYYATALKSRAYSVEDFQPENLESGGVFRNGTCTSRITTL
Chain of 168 GPCRs (Homo sapiens, UniProt P21731) (P21731 whole entry): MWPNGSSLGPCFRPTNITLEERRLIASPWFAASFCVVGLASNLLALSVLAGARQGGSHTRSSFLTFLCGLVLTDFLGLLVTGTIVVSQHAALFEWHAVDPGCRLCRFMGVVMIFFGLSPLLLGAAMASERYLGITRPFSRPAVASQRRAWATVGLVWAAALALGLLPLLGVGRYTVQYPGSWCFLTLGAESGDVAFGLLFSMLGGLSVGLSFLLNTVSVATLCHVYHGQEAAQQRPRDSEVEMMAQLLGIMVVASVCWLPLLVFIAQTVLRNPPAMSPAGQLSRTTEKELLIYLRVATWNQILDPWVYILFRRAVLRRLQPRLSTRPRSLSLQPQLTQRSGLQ
Chain of 168 GPCRs (Homo sapiens, UniProt P47211) (P47211 whole entry): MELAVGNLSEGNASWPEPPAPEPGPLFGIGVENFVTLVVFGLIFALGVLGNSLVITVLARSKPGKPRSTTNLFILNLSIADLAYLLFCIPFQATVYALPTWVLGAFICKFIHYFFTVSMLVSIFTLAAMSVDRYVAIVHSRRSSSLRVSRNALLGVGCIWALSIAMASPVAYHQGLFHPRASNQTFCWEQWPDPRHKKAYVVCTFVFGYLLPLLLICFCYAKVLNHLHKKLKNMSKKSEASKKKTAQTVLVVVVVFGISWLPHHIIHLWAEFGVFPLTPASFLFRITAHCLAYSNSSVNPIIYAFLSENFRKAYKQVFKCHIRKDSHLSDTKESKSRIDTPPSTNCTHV
Chain of 168 GPCRs (Homo sapiens, UniProt P14416) (P14416 whole entry): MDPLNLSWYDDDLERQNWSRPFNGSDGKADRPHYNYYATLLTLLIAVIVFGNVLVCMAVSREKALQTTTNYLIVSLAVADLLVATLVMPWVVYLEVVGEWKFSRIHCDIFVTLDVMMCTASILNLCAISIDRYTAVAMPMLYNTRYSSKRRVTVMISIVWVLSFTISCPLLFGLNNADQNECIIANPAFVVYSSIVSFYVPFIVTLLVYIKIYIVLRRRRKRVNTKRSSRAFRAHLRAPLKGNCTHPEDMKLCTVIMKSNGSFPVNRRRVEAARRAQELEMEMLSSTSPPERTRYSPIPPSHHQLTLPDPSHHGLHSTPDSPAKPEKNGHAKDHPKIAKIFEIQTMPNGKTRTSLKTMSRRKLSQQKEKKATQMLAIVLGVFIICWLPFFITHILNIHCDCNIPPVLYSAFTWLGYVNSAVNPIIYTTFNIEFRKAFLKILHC
Chain of 168 GPCRs (Homo sapiens, UniProt Q96G91) (Q96G91 whole entry): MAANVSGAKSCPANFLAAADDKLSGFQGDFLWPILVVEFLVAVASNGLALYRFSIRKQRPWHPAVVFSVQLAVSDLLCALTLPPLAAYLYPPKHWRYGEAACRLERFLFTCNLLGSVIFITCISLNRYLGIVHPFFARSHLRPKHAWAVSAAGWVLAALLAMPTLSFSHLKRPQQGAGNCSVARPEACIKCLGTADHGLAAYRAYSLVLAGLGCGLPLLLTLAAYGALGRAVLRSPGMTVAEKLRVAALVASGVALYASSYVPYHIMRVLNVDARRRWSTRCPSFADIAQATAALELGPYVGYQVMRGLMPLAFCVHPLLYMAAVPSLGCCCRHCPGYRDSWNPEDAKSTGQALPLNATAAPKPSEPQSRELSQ
Chain of 168 GPCRs (Homo sapiens, UniProt P35367) (P35367 whole entry): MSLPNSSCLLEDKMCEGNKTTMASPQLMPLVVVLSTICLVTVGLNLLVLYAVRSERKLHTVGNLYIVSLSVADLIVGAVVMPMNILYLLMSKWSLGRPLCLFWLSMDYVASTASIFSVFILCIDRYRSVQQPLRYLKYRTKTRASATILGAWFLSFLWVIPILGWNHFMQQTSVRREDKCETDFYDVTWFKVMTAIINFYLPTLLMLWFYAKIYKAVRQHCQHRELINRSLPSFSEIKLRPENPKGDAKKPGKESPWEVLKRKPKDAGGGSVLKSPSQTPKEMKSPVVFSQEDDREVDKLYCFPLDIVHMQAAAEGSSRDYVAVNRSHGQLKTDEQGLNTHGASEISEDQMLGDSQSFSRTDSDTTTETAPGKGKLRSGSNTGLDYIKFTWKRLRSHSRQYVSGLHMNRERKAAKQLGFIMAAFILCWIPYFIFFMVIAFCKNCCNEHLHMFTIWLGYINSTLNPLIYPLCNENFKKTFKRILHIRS
Chain of 168 GPCRs (Homo sapiens, UniProt Q16581) (Q16581 whole entry): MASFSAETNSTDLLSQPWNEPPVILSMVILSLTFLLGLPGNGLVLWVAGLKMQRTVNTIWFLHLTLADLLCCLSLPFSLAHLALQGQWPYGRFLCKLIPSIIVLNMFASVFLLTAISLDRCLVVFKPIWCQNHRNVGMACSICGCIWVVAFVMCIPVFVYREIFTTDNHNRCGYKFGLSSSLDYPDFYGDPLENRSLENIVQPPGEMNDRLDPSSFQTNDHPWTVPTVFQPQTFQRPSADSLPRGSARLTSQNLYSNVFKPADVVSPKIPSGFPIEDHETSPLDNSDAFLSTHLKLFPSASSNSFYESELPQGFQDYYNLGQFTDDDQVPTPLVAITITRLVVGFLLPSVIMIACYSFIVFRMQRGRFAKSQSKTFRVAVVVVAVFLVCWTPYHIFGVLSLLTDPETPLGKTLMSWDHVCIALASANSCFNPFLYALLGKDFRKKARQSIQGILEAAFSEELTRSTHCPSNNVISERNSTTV
Chain of 168 GPCRs (Homo sapiens, UniProt P08172) (P08172 whole entry): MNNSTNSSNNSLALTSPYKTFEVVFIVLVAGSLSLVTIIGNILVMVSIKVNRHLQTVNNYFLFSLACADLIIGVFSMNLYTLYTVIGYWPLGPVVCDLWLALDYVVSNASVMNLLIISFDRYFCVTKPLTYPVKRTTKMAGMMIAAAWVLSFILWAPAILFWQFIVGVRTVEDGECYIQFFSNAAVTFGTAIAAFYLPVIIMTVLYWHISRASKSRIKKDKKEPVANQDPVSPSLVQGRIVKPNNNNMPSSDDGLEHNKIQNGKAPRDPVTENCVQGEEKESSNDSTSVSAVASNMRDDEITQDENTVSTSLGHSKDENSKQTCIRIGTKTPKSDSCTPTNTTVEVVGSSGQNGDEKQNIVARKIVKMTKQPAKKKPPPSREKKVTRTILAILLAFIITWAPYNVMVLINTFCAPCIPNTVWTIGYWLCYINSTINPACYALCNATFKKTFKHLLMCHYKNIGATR
Chain of 168 GPCRs (Homo sapiens, UniProt P49683) (P49683 whole entry): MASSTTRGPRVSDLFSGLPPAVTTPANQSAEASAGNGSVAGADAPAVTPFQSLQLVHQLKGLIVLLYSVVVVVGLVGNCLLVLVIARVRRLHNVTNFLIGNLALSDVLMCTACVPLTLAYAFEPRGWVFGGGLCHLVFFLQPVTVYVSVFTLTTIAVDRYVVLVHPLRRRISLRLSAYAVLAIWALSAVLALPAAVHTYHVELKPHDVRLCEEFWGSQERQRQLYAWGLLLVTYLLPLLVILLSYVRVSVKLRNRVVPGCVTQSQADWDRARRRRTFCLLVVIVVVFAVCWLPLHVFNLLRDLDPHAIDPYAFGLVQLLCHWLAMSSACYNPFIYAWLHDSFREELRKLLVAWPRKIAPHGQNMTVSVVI
Chain of 168 GPCRs (Homo sapiens, UniProt Q9UBY5) (Q9UBY5 whole entry): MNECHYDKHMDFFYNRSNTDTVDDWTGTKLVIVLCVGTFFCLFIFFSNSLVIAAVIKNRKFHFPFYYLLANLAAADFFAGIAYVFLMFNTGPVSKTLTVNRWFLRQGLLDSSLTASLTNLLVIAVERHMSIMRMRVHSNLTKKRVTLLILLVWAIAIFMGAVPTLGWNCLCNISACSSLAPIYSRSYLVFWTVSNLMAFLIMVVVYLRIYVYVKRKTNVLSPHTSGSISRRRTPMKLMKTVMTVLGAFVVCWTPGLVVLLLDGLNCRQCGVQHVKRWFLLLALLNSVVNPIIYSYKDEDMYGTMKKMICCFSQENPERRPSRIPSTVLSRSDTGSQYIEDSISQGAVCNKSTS
Chain of 168 GPCRs (Homo sapiens, UniProt P43119) (P43119 whole entry): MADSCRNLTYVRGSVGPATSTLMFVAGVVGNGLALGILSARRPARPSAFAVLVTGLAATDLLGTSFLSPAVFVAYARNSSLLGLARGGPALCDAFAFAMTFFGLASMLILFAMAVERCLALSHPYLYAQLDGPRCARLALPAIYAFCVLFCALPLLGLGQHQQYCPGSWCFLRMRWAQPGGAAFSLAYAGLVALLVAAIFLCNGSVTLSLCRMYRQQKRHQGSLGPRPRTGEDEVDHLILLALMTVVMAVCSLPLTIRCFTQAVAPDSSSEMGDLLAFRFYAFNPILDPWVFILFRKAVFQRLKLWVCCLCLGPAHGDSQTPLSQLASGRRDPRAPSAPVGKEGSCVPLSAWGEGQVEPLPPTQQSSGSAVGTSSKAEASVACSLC

In the case of `CNC(C)C(=O)c1ccc2c(c1)OCO2` (centres unmarked) [methylone, 3,4-methylenedioxy-N-methylcathinone], the activity at 10 µM ([1]; Antagonist mode, 10 uM) is reported as 15.8%, the activity at 1 µM ([1]; Antagonist, 1 uM) is reported as 17.8% and the activity at 10 µM ([2]; SSTR1, Antagonist mode, 10 uM) is reported as 20.9%. For the same molecule, the activity at 1 µM ([2]; SSTR1, Antagonist, 1 uM) was 32.4%, the activity at 1 µM ([3]; 1 uM) was 2.5% and the activity at 10 µM ([3]; 10 uM) was 0.3%. For the same molecule, the activity at 10 µM ([4]; P2RY11, Antagonist mode, 10 uM) was 6.6%, the activity at 1 µM ([4]; P2RY11, Antagonist, 1 uM) was 2.7% and the activity at 1 µM ([5]; 1 uM) was -18.5%. For the same molecule, the activity at 10 µM ([5]; 10 uM) was -7.4%, the activity at 10 µM ([6]; Antagonist mode, 10 uM) was -21.5% and the activity at 1 µM ([6]; Antagonist, 1 uM) was 12.4%. For the same molecule, the activity at 10 µM ([7]; Antagonist mode, 10 uM) was 1.6%, the activity at 1 µM ([7]; Antagonist, 1 uM) was 9.8% and the activity at 10 µM ([8]; EDG7, Antagonist mode, 10 uM) was 17.9%. The activity at 1 µM ([8]; EDG7, Antagonist, 1 uM) was 19.5%, the activity at 10 µM ([9]; HRH1, Antagonist mode, 10 uM) was 2.2% and the activity at 1 µM ([9]; HRH1, Antagonist, 1 uM) was -18%. For the same molecule, the activity at 1 µM [10] was -11.6%, the activity at 1 µM ([11]; 1 uM) was 11.3% and the activity at 10 µM ([11]; 10 uM) was 7.7%. It also gave an activity at 10 µM ([12]; GALR1, Antagonist mode, 10 uM) of 6.8%, an activity at 1 µM ([12]; GALR1, Antagonist, 1 uM) of 7.1% and an activity at 10 µM ([13]; MRGPRX1, Antagonist mode, 10 uM) of -10.2%. For the same molecule, the activity at 1 µM ([13]; MRGPRX1, Antagonist, 1 uM) was -6.5%, the activity at 10 µM ([14]; Antagonist mode, 10 uM) was -19.7% and the activity at 1 µM ([14]; Antagonist, 1 uM) was -5.5%. It also gave an activity at 1 µM ([15]; 1 uM) of 18.3%, an activity at 10 µM ([15]; 10 uM) of 10.1% and an activity at 1 µM ([16]; 1 uM) of 13.6%. It also gave an activity at 10 µM ([16]; 10 uM) of 12.5%, an activity at 10 µM ([17]; Antagonist mode, 10 uM) of 0.1% and an activity at 1 µM ([17]; Antagonist, 1 uM) of 1.1%. It also gave an activity at 10 µM ([18]; DRD1, Antagonist mode, 10 uM) of 7.8% and an activity at 1 µM ([18]; DRD1, Antagonist, 1 uM) of 6%.
